Measured values reported in patent US12024510B2, “Pyrazolopyridine-diamides, their use as insecticide and processes for preparing the same” (PI INDUSTRIES LTD., priority 2017, dated 2024).

How the values were obtained:
Format in all cases: in vivo
Plutella xylostella = experiment: whole plant or invertebrate; settings: foliar, cabbage leaf dip, second instar larvae, dead and moribund combined, 72 h after release
In short: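 Compounds milled with zirconia beads into surfactant dispersion (500 ppm stock), diluted in 0.01% Triton-X. Cabbage leaves dipped 10 s, shade-dried 20 min; one second-instar larva per cell, 25 °C, 70% RH. Mortality (dead plus moribund) scored at 72 h.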

Helicoverpa armigera = Helicoverpa armigera diet incorporation method; settings: third instar larvae, dead and moribund combined, 96 h after release
In short: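 500 ppm stock of compound milled with surfactant and zirconia beads to average particle size below 2 μm, dispersed in DM water, diluted as needed, and mixed into semi-synthetic diet at about 50° C. Single starved third-instar larvae per cell, held at 25° C., 70% RH; dead plus moribund larvae scored as percent mortality at 96 h.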

Spodoptera litura = Spodoptera litura diet incorporation method; settings: third instar larvae, dead and moribund combined, 96 h after release
In short: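 Compound milled to <2 μm average particle size in surfactant, dispersed in water (500 ppm stock dispersion), then mixed into semi-synthetic diet at ~50° C. One starved third-instar larva per diet cell, 25° C, 70% RH; percent mortality (dead plus moribund) scored at 96 h.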

Measured: mortality at 300 ppm

CC(C)NC(=O)c1c(NC(=O)c2cc(Br)nn2-c2ncccc2Cl)c(Cl)cc2ccnn12 [Compound 138, 6-(3-bromo-1-(3-chloropyridin-2-yl)-1H-pyrazole-5-carboxamido)-5-chloro-N-isopropylpyrazolo[1,5-a]pyridine-7-carboxamide]
> 70%: all assays above

CCCCNC(=O)c1c(NC(=O)c2cc(Br)nn2-c2ncccc2Cl)c(Cl)cc2ccnn12 [Compound 139, 6-(3-bromo-1-(3-chloropyridin-2-yl)-1H-pyrazole-5-carboxamido)-N-butyl-5-chloropyrazolo[1,5-a]pyridine-7-carboxamide]
> 70%: all assays above

O=C(Nc1c(Cl)cc2ccnn2c1C(=O)NCC1CC1)c1cc(Br)nn1-c1ncccc1Cl [Compound 140, 6-(3-bromo-1-(3-chloropyridin-2-yl)-1H-pyrazole-5-carboxamido)-5-chloro-N-(cyclopropylmethyl)pyrazolo[1,5-a]pyridine-7-carboxamide]
> 70%: all assays above

C#CCNC(=O)c1c(NC(=O)c2cc(Br)nn2-c2ncccc2Cl)c(Cl)cc2ccnn12 [Compound 141, 6-(3-bromo-1-(3-chloropyridin-2-yl)-1H-pyrazole-5-carboxamido)-5-chloro-N-(prop-2-yn-1-yl)pyrazolo[1,5-a]pyridine-7-carboxamide]
> 70%: all assays above

CNC(=O)c1c(NC(=O)c2cc(Br)nn2-c2ncccc2Cl)c(Cl)cc2ccnn12 [Compound 148, 6-(3-bromo-1-(3-chloropyridin-2-yl)-1H-pyrazole-5-carboxamido)-5-chloro-N-methylpyrazolo[1,5-a]pyridine-7-carboxamide]
> 70%: all assays above

CCCNC(=O)c1c(NC(=O)c2cc(Br)nn2-c2ncccc2Cl)c(Cl)cc2ccnn12 [Compound 151, 6-(3-bromo-1-(3-chloropyridin-2-yl)-1H-pyrazole-5-carboxamido)-5-chloro-N-propylpyrazolo[1,5-a]pyridine-7-carboxamide]
> 70%: all assays above

CNC(=O)c1c(NC(=O)c2cc(Cn3nnc(C(F)(F)F)n3)nn2-c2ncccc2Cl)c(Cl)cc2ccnn12 [Compound 153, 5-chloro-6-(1-(3-chloropyridin-2-yl)-3-((5-(trifluoromethyl)-2H-tetrazol-2-yl)methyl)-1H-pyrazole-5-carboxamido)-N-methylpyrazolo[1,5-a]pyridine-7-carboxamide]
> 70%: all assays above

CCNC(=O)c1c(NC(=O)c2cc(Cn3nnc(C(F)(F)F)n3)nn2-c2ncccc2Cl)c(Cl)cc2ccnn12 [Compound 154, 5-chloro-6-(1-(3-chloropyridin-2-yl)-3-((5-(trifluoromethyl)-2H-tetrazol-2-yl)methyl)-1H-pyrazole-5-carboxamido)-N-ethylpyrazolo[1,5-a]pyridine-7-carboxamide]
> 70%: all assays above

CCNC(=O)c1c(NC(=O)c2cc(Br)nn2-c2ncccc2Cl)ccc2ccnn12 [Compound 157, 6-(3-bromo-1-(3-chloropyridin-2-yl)-1H-pyrazole-5-carboxamido)-N-ethylpyrazolo[1,5-a]pyridine-7-carboxamide]
> 70%: all assays above

CNC(=O)c1c(NC(=O)c2cc(C(F)(F)F)nn2-c2ncccc2Cl)c(Cl)cc2ccnn12 [Compound 162, 5-chloro-6-(1-(3-chloropyridin-2-yl)-3-(trifluoromethyl)-1H-pyrazole-5-carboxamido)-N-methylpyrazolo[1,5-a]pyridine-7-carboxamide]
> 70%: all assays above

CNC(=O)c1c(NC(=O)c2cc(Cn3nnc(C(F)(F)F)n3)nn2-c2ncccc2Cl)c(C)cc2ccnn12 [Compound 166, 6-(1-(3-chloropyridin-2-yl)-3-((5-(trifluoromethyl)-2H-tetrazol-2-yl)methyl)-1H-pyrazole-5-carboxamido)-N,5-dimethylpyrazolo[1,5-a]pyridine-7-carboxamide]
> 70%: all assays above

CCNC(=O)c1c(NC(=O)c2cc(Cn3nnc(C(F)(F)F)n3)nn2-c2ncccc2Cl)c(C)cc2ccnn12 [Compound 167, 6-(1-(3-chloropyridin-2-yl)-3-((5-(trifluoromethyl)-2H-tetrazol-2-yl)methyl)-1H-pyrazole-5-carboxamido)-N-ethyl-5-methylpyrazolo[1,5-a]pyridine-7-carboxamide]
> 70%: all assays above

Cc1cc2ccnn2c(C(=O)NC(C)(C)C)c1NC(=O)c1cc(Cn2nnc(C(F)(F)F)n2)nn1-c1ncccc1Cl [Compound 170, N-(tert-butyl)-6-(1-(3-chloropyridin-2-yl)-3-((5-(trifluoromethyl)-2H-tetrazol-2-yl)methyl)-1H-pyrazole-5-carboxamido)-5-methylpyrazolo[1,5-a]pyridine-7-carboxamide]
> 70%: all assays above

COCC(C)(C)NC(=O)c1c(NC(=O)c2cc(Br)nn2-c2ncccc2Cl)c(C)cc2ccnn12 [Compound 174, 6-(3-bromo-1-(3-chloropyridin-2-yl)-1H-pyrazole-5-carboxamido)-N-(1-methoxy-2-methylpropan-2-yl)-5-methylpyrazolo[1,5-a]pyridine-7-carboxamide]
> 70%: all assays above

Cc1cc2ccnn2c(C(=O)NCC(F)F)c1NC(=O)c1cc(Br)nn1-c1ncccc1Cl [Compound 186, 6-(3-bromo-1-(3-chloropyridin-2-yl)-1H-pyrazole-5-carboxamido)-N-(2,2-difluoroethyl)-5-methylpyrazolo[1,5-a]pyridine-7-carboxamide]
> 70%: all assays above

Cc1cc2ccnn2c(C(=O)NC(C)C(F)(F)F)c1NC(=O)c1cc(Br)nn1-c1ncccc1Cl (stereo not drawn) [Compound 187, 6-(3-bromo-1-(3-chloropyridin-2-yl)-1H-pyrazole-5-carboxamido)-5-methyl-N-(1,1,1-trifluoropropan-2-yl)pyrazolo[1,5-a]pyridine-7-carboxamide]
> 70%: all assays above

Cc1cc2ccnn2c(C(=O)NCC2CCOCC2)c1NC(=O)c1cc(Br)nn1-c1ncccc1Cl [Compound 195, 6-(3-bromo-1-(3-chloropyridin-2-yl)-1H-pyrazole-5-carboxamido)-5-methyl-N-((tetrahydro-2H-pyran-4-yl)methyl)pyrazolo[1,5-a]pyridine-7-carboxamide]
> 70%: all assays above
